Laboratory results: patent US7074789B2, “Kinase inhibitors” (Amgen Inc., priority 1999, dated 2006)
pIC50: −log10 of the molar value.

Legend:
Format in all cases: biochemical
Src = biological target: T1, Src (Homo sapiens, UniProt P12931); assay: Kinase inhibition assay (33P transfer), Src; conditions: Table 6, Src-1 kinase inhibition class
T1 construct: Kinases are expressed as either kinase domains or full length constructs; made in house
How it was run: (§1)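 Radiometric format: recombinant tagged kinase (catalytic domain or whole protein, sometimes combined with regulatory polypeptides) phosphorylates immobilised poly(Glu,Tyr) 4:1 or poly(Arg,Ser) 3:1 using [33P]ATP. Wells are washed in 0.5% phosphoric acid, then counted. IC50 is taken where substrate labelling falls by half.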

EPHB4 = biological target: T2, EPHB4 (Homo sapiens, UniProt P54760); assay: Kinase inhibition assay (33P transfer), EPHB4; conditions: read-out: EPHB4-1
T2 construct: Kinases are expressed as either kinase domains or full length constructs; made in house
T2 sequence (P54760 16-987): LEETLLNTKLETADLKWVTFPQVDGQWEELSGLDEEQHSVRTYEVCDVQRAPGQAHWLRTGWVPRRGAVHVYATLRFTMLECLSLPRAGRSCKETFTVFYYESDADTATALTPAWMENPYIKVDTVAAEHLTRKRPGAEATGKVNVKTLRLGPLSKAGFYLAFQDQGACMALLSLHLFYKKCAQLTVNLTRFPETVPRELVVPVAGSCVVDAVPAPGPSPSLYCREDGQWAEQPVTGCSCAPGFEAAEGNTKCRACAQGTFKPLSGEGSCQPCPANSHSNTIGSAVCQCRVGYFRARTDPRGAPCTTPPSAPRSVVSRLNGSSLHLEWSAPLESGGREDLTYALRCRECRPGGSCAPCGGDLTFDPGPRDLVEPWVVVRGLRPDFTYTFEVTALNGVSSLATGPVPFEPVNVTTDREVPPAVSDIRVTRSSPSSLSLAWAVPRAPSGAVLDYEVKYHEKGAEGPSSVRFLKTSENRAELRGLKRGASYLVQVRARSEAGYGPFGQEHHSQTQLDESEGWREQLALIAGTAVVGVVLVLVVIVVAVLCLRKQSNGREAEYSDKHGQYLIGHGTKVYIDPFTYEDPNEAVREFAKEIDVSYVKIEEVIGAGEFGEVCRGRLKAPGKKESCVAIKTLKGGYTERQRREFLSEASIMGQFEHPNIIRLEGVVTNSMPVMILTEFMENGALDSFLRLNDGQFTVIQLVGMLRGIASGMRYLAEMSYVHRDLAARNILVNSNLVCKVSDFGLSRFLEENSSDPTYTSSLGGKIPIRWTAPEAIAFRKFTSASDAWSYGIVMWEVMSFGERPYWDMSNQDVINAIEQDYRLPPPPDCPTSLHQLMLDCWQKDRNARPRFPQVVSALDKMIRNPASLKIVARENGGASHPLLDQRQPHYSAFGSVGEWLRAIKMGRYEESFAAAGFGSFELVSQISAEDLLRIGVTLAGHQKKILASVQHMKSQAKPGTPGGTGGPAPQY

Tek = biological target: T3, Tek (Homo sapiens, UniProt Q02763); assay: Kinase inhibition assay (33P transfer), Tek; conditions: read-out: Tek-1
T3 construct: Kinases are expressed as either kinase domains or full length constructs; made in house
How it was run: as §1

Hck-1 = biological target: T4, Hck-1 (Homo sapiens, UniProt P08631); assay: Kinase inhibition assay (33P transfer), Hck; conditions: Table 6, Hck-1 kinase inhibition class
T4 construct: Kinases are expressed as either kinase domains or full length constructs; made in house

AKT = biological target: T5, AKT (Homo sapiens, UniProt Q9Y243); assay: Kinase inhibition assay (33P transfer), AKT; conditions: Table 2, kinase inhibition class; read-out: AKT3-1
T5 construct: Kinases are expressed as either kinase domains or full length constructs; made in house
How it was run: (§2)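 GST/His-tagged kinase (domain or full length; E. coli or baculovirus) + [33P]ATP on plates coated with poly(Glu,Tyr) 4:1 or poly(Arg,Ser) 3:1; incubate, wash 0.5% H3PO4, add scintillant, count.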

c-Met = biological target: T6, c-Met (Homo sapiens, UniProt P08581); assay: Kinase inhibition assay (33P transfer), c-Met; conditions: Table 2, kinase inhibition class; read-out: Met-1
T6 construct: Kinases are expressed as either kinase domains or full length constructs; made in house
How it was run: as §1

Lck = biological target: T7, Lck (Homo sapiens, UniProt P06239); assay: Kinase inhibition assay (33P transfer), Lck; conditions: Table 3; read-out: Lck-1
T7 construct: Kinases are expressed as either kinase domains or full length constructs; made in house
How it was run: as §2

EGFR = biological target: T8, EGFR (Homo sapiens, UniProt P00533); assay: Kinase inhibition assay (33P transfer), EGFR; conditions: Table 2, kinase inhibition class; read-out: EGFR-1
T8 construct: Kinases are expressed as either kinase domains or full length constructs; made in house
How it was run: as §1

FGFR1 = biological target: T9, FGFR1 (Homo sapiens, UniProt P11362); assay: Kinase inhibition assay (33P transfer), FGFR1; conditions: read-out: FGFR1-1
T9 construct: Kinases are expressed as either kinase domains or full length constructs; made in house

Flt-1 = biological target: T10, Flt-1 (Homo sapiens, UniProt P17948); assay: Kinase inhibition assay (33P transfer), Flt-1
T10 construct: Kinases are expressed as either kinase domains or full length constructs; made in house
How it was run: as §1

PDGFRB = biological target: T11, PDGFRB (Homo sapiens, UniProt P09619); assay: Kinase inhibition assay (33P transfer), PDGFRB; conditions: read-out: PDGFRB-1
T11 construct: Kinases are expressed as either kinase domains or full length constructs; made in house

T7 sequence (P06239 whole entry, species assumed, the tested form may be a part): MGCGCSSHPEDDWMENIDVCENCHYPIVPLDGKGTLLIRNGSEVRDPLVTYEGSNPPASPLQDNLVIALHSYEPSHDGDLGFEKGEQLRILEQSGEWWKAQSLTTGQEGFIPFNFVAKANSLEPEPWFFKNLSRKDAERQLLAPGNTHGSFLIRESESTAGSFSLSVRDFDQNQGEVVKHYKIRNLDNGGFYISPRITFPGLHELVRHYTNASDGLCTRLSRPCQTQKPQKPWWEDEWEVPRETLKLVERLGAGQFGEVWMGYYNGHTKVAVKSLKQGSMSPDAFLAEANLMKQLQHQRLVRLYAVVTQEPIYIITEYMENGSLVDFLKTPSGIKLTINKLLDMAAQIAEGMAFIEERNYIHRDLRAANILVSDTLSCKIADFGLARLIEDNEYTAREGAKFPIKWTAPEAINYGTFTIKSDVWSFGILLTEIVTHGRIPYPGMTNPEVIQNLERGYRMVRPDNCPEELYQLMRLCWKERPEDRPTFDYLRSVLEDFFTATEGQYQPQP
T9 sequence (P11362 22-822, species assumed): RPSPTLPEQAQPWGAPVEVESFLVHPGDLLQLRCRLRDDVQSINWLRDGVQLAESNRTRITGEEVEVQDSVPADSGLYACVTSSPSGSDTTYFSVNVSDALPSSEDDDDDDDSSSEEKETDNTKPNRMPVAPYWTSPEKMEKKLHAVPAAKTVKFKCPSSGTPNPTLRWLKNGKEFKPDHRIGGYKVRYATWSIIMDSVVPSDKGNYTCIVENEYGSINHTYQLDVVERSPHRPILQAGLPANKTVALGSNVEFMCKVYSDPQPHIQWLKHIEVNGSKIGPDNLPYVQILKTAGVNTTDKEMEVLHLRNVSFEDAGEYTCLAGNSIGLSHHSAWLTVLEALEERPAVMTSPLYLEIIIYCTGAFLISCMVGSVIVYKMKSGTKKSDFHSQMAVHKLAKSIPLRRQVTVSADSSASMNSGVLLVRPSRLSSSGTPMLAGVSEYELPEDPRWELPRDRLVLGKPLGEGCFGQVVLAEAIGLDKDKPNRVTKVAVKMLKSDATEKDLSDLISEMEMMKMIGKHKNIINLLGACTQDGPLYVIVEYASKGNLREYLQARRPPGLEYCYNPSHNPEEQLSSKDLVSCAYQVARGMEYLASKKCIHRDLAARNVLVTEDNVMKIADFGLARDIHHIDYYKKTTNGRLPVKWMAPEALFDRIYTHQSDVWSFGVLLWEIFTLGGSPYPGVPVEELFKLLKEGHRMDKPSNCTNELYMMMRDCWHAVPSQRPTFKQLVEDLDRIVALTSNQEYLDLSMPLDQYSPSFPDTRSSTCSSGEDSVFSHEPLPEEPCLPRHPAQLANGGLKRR
T6 sequence (P08581 25-1390): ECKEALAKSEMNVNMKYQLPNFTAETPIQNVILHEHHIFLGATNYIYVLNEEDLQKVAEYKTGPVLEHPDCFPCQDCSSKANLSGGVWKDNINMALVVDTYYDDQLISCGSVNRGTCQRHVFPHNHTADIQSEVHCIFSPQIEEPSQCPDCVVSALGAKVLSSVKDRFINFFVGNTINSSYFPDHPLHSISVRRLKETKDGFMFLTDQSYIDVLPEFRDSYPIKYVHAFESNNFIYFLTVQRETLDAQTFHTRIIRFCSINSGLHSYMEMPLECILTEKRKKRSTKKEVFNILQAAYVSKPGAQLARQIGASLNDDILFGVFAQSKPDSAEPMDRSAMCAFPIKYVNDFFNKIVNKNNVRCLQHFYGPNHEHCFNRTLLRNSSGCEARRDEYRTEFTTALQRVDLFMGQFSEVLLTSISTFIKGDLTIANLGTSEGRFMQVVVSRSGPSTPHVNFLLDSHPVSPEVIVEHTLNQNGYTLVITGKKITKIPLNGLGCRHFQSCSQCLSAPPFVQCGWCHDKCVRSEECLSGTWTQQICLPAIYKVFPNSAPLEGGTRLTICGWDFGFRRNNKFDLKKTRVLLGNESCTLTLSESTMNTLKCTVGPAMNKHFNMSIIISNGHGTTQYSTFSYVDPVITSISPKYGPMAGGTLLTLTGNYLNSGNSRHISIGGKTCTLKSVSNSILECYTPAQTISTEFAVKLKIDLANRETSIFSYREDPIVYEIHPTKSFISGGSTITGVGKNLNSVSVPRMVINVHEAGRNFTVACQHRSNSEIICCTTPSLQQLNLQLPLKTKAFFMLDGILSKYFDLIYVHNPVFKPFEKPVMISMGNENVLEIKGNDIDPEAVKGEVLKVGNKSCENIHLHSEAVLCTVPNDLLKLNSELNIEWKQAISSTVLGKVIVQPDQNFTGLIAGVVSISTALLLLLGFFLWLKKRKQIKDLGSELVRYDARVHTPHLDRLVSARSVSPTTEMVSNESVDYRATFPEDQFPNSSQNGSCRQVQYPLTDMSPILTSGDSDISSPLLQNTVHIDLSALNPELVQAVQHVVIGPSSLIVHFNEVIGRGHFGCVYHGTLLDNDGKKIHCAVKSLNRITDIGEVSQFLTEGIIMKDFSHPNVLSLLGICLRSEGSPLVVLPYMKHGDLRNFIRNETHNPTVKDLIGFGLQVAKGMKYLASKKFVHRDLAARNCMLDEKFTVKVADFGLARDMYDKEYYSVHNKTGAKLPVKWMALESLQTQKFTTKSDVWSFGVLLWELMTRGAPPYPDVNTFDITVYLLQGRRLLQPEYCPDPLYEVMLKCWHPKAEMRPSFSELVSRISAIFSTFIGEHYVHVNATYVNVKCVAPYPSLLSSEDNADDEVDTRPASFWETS
T1 sequence (P12931 whole entry, species assumed, the tested form may be a part): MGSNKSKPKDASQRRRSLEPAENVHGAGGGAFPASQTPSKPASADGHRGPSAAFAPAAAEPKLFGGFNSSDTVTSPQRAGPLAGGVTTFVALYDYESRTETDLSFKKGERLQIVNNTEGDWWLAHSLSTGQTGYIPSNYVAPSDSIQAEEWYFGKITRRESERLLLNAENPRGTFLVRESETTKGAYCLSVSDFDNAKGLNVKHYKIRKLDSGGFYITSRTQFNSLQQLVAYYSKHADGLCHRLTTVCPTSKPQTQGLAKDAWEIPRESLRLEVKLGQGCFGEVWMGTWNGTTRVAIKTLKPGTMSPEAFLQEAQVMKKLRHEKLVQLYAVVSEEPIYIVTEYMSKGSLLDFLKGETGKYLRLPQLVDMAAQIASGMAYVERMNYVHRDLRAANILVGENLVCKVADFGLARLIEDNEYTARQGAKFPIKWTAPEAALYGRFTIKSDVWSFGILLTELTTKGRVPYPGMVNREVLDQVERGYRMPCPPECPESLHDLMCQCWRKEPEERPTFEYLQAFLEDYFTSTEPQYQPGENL
T8 sequence (P00533 25-1210, species assumed): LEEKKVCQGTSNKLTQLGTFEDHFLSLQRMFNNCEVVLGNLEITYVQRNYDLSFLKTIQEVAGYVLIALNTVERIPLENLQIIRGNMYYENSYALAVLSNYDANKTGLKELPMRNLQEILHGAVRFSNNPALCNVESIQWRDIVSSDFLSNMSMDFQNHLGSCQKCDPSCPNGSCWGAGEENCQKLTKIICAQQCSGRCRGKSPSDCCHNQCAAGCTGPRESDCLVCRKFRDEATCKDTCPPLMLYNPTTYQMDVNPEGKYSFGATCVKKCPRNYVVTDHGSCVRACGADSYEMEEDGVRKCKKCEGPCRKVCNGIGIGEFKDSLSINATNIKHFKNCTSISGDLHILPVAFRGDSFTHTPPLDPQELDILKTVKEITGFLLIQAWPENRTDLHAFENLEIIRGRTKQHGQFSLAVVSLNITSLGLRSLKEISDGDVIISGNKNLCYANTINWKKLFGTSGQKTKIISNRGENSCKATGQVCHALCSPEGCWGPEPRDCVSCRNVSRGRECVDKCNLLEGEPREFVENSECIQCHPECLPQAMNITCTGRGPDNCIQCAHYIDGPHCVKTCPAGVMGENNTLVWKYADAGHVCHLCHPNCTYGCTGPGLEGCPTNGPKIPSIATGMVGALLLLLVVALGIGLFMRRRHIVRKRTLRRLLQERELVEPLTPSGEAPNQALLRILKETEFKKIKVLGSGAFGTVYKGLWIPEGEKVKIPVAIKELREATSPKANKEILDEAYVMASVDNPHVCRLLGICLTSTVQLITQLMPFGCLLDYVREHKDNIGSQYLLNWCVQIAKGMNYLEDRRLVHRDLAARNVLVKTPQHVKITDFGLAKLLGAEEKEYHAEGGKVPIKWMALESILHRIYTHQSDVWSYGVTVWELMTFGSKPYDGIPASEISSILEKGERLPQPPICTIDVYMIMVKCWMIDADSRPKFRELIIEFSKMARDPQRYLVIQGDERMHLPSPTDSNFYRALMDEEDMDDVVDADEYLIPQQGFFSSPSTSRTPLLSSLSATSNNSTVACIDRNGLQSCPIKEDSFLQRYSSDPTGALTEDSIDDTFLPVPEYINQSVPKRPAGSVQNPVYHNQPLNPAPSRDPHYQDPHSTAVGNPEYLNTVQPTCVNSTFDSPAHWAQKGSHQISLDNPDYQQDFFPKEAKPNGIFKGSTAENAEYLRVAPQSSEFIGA
T4 sequence (P08631 whole entry, the tested form may be a part): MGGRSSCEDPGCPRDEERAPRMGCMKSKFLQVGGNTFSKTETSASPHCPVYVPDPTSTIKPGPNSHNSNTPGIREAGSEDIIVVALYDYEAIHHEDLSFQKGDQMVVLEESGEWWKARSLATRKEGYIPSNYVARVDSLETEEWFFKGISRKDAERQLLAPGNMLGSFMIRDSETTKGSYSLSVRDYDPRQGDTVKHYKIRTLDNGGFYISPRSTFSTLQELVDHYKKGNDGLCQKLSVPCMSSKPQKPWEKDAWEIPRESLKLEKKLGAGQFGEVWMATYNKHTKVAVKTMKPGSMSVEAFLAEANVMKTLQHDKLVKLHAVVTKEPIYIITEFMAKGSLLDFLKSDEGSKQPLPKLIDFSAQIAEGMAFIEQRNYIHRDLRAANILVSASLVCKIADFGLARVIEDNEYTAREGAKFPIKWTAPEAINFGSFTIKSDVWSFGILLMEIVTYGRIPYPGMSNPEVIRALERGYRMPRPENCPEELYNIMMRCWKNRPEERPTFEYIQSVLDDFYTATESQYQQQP

Row | pIC50 (Src) | pIC50 (EPHB4) | pIC50 (Tek) | pIC50 (Hck-1) | pIC50 (AKT) | pIC50 (c-Met) | pIC50 (Lck) | pIC50 (EGFR) | pIC50 (FGFR1) | pIC50 (Flt-1) | pIC50 (PDGFRB) | SMILES
1 | > 6.04 | 5.27 to 6.04 | < 4.99 | < 4.99 | < 4.99 | < 4.99 | 5.27 to 6.04 | 4.99 to 5.10 |  |  |  | COc1cc(Nc2ncnc(Nc3cc(OC)c(OC)c(OC)c3)n2)cc(OC)c1OC [Compound 76]
2 |  | < 5.07 | 5.18 to 5.34 |  | < 5.07 | < 5.07 | 5.18 to 5.34 | < 5.07 |  |  |  | COC(=O)c1cccc(Nc2nc3ccccc3n2-c2ncnc(Nc3cc(OC)c(OC)c(OC)c3)n2)c1 [Compound 383]
3 | 5.20 to 5.97 | > 5.97 | < 4.92 | < 4.92 | < 4.92 | 4.92 to 5.03 | 5.20 to 5.97 | > 5.97 |  |  |  | C#Cc1cccc(Nc2ncnc(Nc3cc(OC)c(OC)c(OC)c3)n2)c1 [Compound 74]
4 |  | 5.26 to 6.03 | < 4.98 |  | < 4.98 | < 4.98 | 5.26 to 6.03 | 5.26 to 6.03 | 5.26 to 6.03 | > 6.03 | > 6.03 | COc1cc(Nc2ncnc(Nc3ccc(Br)cc3)n2)cc(OC)c1OC [Compound 82]

More lines, now with the values behind:

Row | SMILES | pIC50 (Src) | pIC50 (EPHB4) | pIC50 (Tek) | pIC50 (Hck-1) | pIC50 (AKT) | pIC50 (c-Met) | pIC50 (Lck) | pIC50 (EGFR) | pIC50 (FGFR1) | pIC50 (Flt-1) | pIC50 (PDGFRB)
5 | COc1cc(Nc2ncnc(Nc3cccc(Br)c3)n2)cc(OC)c1OC [Compound 75] | 5.26 to 6.03 | > 6.03 | < 4.98 | < 4.98 | 4.98 to 5.09 | 4.98 to 5.09 | 5.26 to 6.03 | > 6.03 | 4.98 to 5.09 | < 4.98 | < 4.98
6 | COc1cc(Nc2ncnc(Nc3ccc(F)c(Cl)c3)n2)cc(OC)c1OC [Compound 61] | > 6.01 | > 6.01 |  | < 4.96 | < 4.96 | < 4.96 | > 6.01 | > 6.01 | < 4.96 | > 6.01 | > 6.01
7 | COc1cc(Nc2ncnc(NC(=O)Nc3ccccc3)n2)cc(OC)c1OC [Compound 852] | < 4.94 | < 4.94 |  | < 4.94 | < 4.94 | 5.05 to 5.22 | < 4.94 | < 4.94 | < 4.94 | < 4.94 | 4.94 to 5.05
8 | COc1cc(Nc2ncnc(Nc3ccc(N4CCOCC4)cc3)n2)cc(OC)c1OC [Compound 101] | 5.26 to 6.04 | < 4.99 | 4.99 to 5.10 | < 4.99 | < 4.99 | < 4.99 | 5.10 to 5.26 | < 4.99 |  |  | 
9 | COc1cc(Nc2ncnc(Nc3cc(C)[nH]n3)n2)cc(OC)c1OC [Compound 88] | 5.17 to 5.95 | 5.17 to 5.95 | < 4.90 | 4.90 to 5.01 | < 4.90 | 5.17 to 5.95 | 5.17 to 5.95 | 4.90 to 5.01 |  |  | 
10 | COc1cc(Nc2ncnc(Nc3ccc(N(C)C)cc3)n2)cc(OC)c1OC [Compound 27] | 5.22 to 6.00 | < 4.94 |  | < 4.94 | < 4.94 | 4.94 to 5.05 | 5.22 to 6.00 | 5.05 to 5.22 | 5.22 to 6.00 | > 6.00 | < 4.94
11 | COc1cc(Nc2ncnc(Nc3ccc4c(c3)Cc3ccccc3-4)n2)cc(OC)c1OC [Compound 95] | < 4.99 | 4.99 to 5.10 | < 4.99 | < 4.99 | < 4.99 | < 4.99 | 5.26 to 6.04 | < 4.99 |  |  | 
